Assays:
[1] = system: NY-ESO-1 region consisting of amino acids 100-129; test: ELISA with assay OLPs as coating antigens to determine epitopes recognized by induced IgG; type: in vivo, human; settings: accelerating the response, increasing titer, broadening antibody repertoire
Procedure: In these experiments, the epitopes recognized by the NY-ESO-1 specific IgGs that were induced by immunization were determined. ELISAs were carried out, using standard methods, with the assay OLPs supra being used as coating antigens. Antibody titers of subjects were tested at week 16, with the exception of one sample, which was tested at week 13. IgG responses were most frequent and strongest against the NY-ESO-1 region consisting of amino acids 121-150. The NY-ESO-1 region consisting of amino acids 80-109 was also recognized frequently, and in the case of the NY-ESO-1 region consisting of amino acids 100-129, all patients who received the combination of the peptides, Montanide, and polyICLC had relevant antibodies, as did 4/9 of the patients who received the peptides in Montanide only. There was a much lower response to the NY-ESO-1 region consisting of amino acids 142-173. In all cases, polyICLC enhanced the humoral, immune response, not only by accelerating the response and increasing titer, but also by broadening antibody repertoire.

CD4+ T cell lines = test: Cytokine production of CD4+ T cell lines by sandwich ELISA; type: in vivo, human
Procedure: Equal amounts of CD4^+ T cell lines created supra, and autologous EBV-B cells (5×10^4) were co-cultured in 250 μl RPMI and 10% FCS. After the EBV-B cells had been pulsed overnight or not with the assay OLPs and cultured for 24 hours, supernatant was harvested, and stored at −20° C. until sandwich ELISAs were carried out using standard methods. The cytokines which were assayed included IFN-γ, GM-CSF, IL-4, IL-9, IL-10, IL-13, IL-17, and TGF-β. These are all known to be produced by different CD4^+ subsets.

For polyICLC, the “effect on humoral immune response” value [1] was “enhanced”, the “IL-9 production by T cells following immunization” value (CD4+ T cell lines; in vivo) was “inhibited completely” and the “level of IL-4” value (CD4+ T cell lines; week 13 and 16) was “significantly suppressed”. For the same substance, the “level of IL-9” value (CD4+ T cell lines; week 13 and 16) was “significantly suppressed”, the “level of IL-13” value (CD4+ T cell lines; week 13 and 16) was “significantly suppressed” and the IL-9/IL-4 ratio (CD4+ T cell lines; when polyICLC was used) was “significantly lower”.
